Data: the supplement of paper PMC9013687

Tests used:
[1] = tested on: Danio rerio embryo; test: EC10 Eye size_Decrease; higher = less potent; settings: exposure time: 2 dpf
Method: (§1)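 Zebrafish embryos (UFZ-OBI strain) were exposed from 2 hpf for 48 h (2 dpf) or 96 h (4 dpf) at 28 °C; spontaneous tail coiling was scored at 25 hpf. Morphological features from automated image analysis (FishInspector), heart rate and locomotor response were fitted with drc models. Quantal endpoints were dichotomised at 2.5 SD from controls and fitted with a log-logistic model; heart rate, pigmentation and STC were normalised to the replicate control mean. Betamethasone was tested as betamethasone dipropionate, diflorasone as diflorasone diacetate.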

[2] = tested on: Danio rerio embryo; test: EC10 Curvature_Increase; higher = less potent
Method: as §1

[3] = tested on: Danio rerio embryo; test: EC10 LMR ligth decrease; higher = less potent; settings: exposure time: 4 dpf
Method: as §1

[4] = tested on: Danio rerio embryo; test: EC20 Head size_Decrease; higher = less potent; settings: exposure time: 2 dpf
Method: as §1

[5] = tested on: Danio rerio embryo; test: EC20 LMR ligth decrease; higher = less potent; settings: exposure time: 4 dpf
Method: as §1

[6] = tested on: Danio rerio embryo; test: EC20 Curvature_Increase; higher = less potent
Method: as §1

[7] = tested on: Danio rerio embryo; test: EC10 Head size_Decrease; higher = less potent; settings: exposure time: 2 dpf
Method: as §1

[8] = tested on: Danio rerio embryo; test: EC20 Body length_Decrease; higher = less potent
Method: as §1

[9] = tested on: Danio rerio embryo; test: EC10 Body length_Decrease; higher = less potent
Method: as §1

[10] = tested on: Danio rerio embryo; test: EC10 Bladder size_Decrease; higher = less potent; settings: exposure time: 4 dpf
Method: as §1

[11] = tested on: Danio rerio embryo; test: EC20 Bladder size_Decrease; higher = less potent; settings: exposure time: 4 dpf
Method: as §1

[12] = tested on: Danio rerio embryo; test: EC20 Yolk sac size_Increase; higher = less potent
Method: as §1

[13] = tested on: Danio rerio embryo; test: EC20 Pericard size_Increase; higher = less potent; settings: exposure time: 2 dpf
Method: as §1

[14] = tested on: Danio rerio embryo; test: EC10 Yolk sac size_Increase; higher = less potent
Method: as §1

[15] = tested on: Danio rerio embryo; test: EC10 Pericard size_Increase; higher = less potent; settings: exposure time: 2 dpf
Method: as §1

[16] = tested on: Danio rerio embryo; test: EC10 Head trunk angle_Decrease; higher = less potent; settings: exposure time: 2 dpf
Method: as §1

[17] = tested on: Danio rerio embryo; test: EC20 Eye-jaw distance_Decrease; higher = less potent; settings: exposure time: 4 dpf
Method: as §1

[18] = tested on: Danio rerio embryo; test: EC10 Eye-jaw distance_Decrease; higher = less potent; settings: exposure time: 4 dpf
Method: as §1

[19] = tested on: Danio rerio embryo; test: EC20 Head trunk angle_Decrease; higher = less potent; settings: exposure time: 2 dpf
Method: as §1

[20] = tested on: Danio rerio embryo; test: spontaneous tail coiling frequency (coils/min/embryo); higher = more spontaneous movement; settings: 25 hpf
Method: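 Spontaneous tail coilings of zebrafish embryos exposed from 2 hpf were recorded at 24-25 hpf in 1-min videos and detected by a KNIME workflow from grey-value variance. Betamethasone was tested as the dipropionate, diflorasone as the diacetate.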

CC1=C(/C=C/C(C)=C/C=C/C(C)=C/C(=O)O)C(C)(C)CCC1 [all-trans retinoic acid]
Settings | EC10 Bladder size Decrease [nM] | EC10 Eye size Decrease [nM] | EC10 Eye-jaw distance Decrease [nM] | EC10 Head size Decrease [nM] | EC10 Head trunk angle Decrease [nM] | EC10 LMR ligth decrease [nM] | EC10 Pericard size Increase [nM] | EC20 Bladder size Decrease [nM] | EC20 Eye-jaw distance Decrease [nM] | EC20 Head size Decrease [nM] | EC20 Head trunk angle Decrease [nM] | EC20 LMR ligth decrease [nM] | EC20 Pericard size Increase [nM]
[1] | – | 34 | – | – | – | – | – | – | – | – | – | – | –
[3] | – | – | – | – | – | 1.7 | – | – | – | – | – | – | –
[4] | – | – | – | – | – | – | – | – | – | 26 | – | – | –
[5] | – | – | – | – | – | – | – | – | – | – | – | 4.75 | –
[7] | – | – | – | 19 | – | – | – | – | – | – | – | – | –
[10] | 11 | – | – | – | – | – | – | – | – | – | – | – | –
[11] | – | – | – | – | – | – | – | 12 | – | – | – | – | –
[13] | – | – | – | – | – | – | – | – | – | – | – | – | 36
[15] | – | – | – | – | – | – | 35 | – | – | – | – | – | –
[16] | – | – | – | – | 2 | – | – | – | – | – | – | – | –
[17] | – | – | – | – | – | – | – | – | 28 | – | – | – | –
[18] | – | – | 25 | – | – | – | – | – | – | – | – | – | –
[19] | – | – | – | – | – | – | – | – | – | – | 4 | – | –

Settings | EC10 Body length Decrease [nM] | EC10 Curvature Increase [nM] | EC10 Yolk sac size Increase [nM] | EC20 Body length Decrease [nM] | EC20 Curvature Increase [nM] | EC20 Yolk sac size Increase [nM] | spontaneous tail coiling frequency
[2], exposure time: 2 dpf | – | 7 | – | – | – | – | –
[2], exposure time: 4 dpf | – | 6 | – | – | – | – | –
[6], exposure time: 2 dpf | – | – | – | – | 9 | – | –
[6], exposure time: 4 dpf | – | – | – | – | 7 | – | –
[8], exposure time: 2 dpf | – | – | – | 33 | – | – | –
[8], exposure time: 4 dpf | – | – | – | 30 | – | – | –
[9], exposure time: 2 dpf | 31 | – | – | – | – | – | –
[9], exposure time: 4 dpf | 23 | – | – | – | – | – | –
[12], exposure time: 2 dpf | – | – | – | – | – | 21 | –
[12], exposure time: 4 dpf | – | – | – | – | – | 36 | –
[14], exposure time: 2 dpf | – | – | 13 | – | – | – | –
[14], exposure time: 4 dpf | – | – | 34 | – | – | – | –
[20], 1 µM | – | – | – | – | – | – | 3.33
[20], 6.25 µM | – | – | – | – | – | – | 2.34
[20], 12.5 µM | – | – | – | – | – | – | 2.17
[20], 25 µM | – | – | – | – | – | – | 2.1
[20], 50 µM | – | – | – | – | – | – | 1.74
